For one molecule, solubility results are on record in patent US20050145571A1, “Extraction and recovery of ions from a solution” (priority 2001, published 2005).

SMILES strings stand for the structures.

In general, solubility refers to the dissolved amount per volume that the medium holds.

For the data set the following is noted: at 23° C.

For the molecule `O=S(=O)([O-])C(F)(F)C(F)(F)C(F)(F)C(F)(F)C(F)(F)C(F)(F)C(F)(F)C(F)(F)F.[K+]` [KPFS-8, potassium PFS-8], the solubility is no more than 1000 µg/mL.
